From ChEMBL document CHEMBL1126659, “5-chloro-3-(phenylsulfonyl)indole-2-carboxamide: a novel, non-nucleoside inhibitor of HIV-1 reverse transcriptase” (J Med Chem, 1993) come the findings set out here.

Counter-ions that a name gives are not always drawn.

The experiment concerns MT4. In words: Inhibition of cell culture in MT-4 cells. It is filed as functional. The settings on record: Homo sapiens, read-out: CIC95.
On to `NC(=O)c1[nH]c2ccc(Cl)cc2c1[S+]([O-])c1ccccc1` (stereo not given), for which the IC95 is 200 nM.

For `CNC(=O)c1[nH]c2ccc(Cl)cc2c1Sc1ccccc1`, the IC95 was determined as 200 nM.

For the compound `CN(C)C(=O)c1[nH]c2ccccc2c1Sc1ccccc1`, the IC95 is above 3000 nM.

Regarding `[O-][S+](Cc1[nH]c2ccccc2c1[S+]([O-])c1ccccc1)c1ccccc1` (stereo not given), the IC95 is above 3000 nM.

Turning to `COC(=O)c1[nH]c2ccc(Cl)cc2c1Sc1ccccc1`, the IC95 stood at 1500 nM.

As for `[O-][S+](Cc1[nH]c2ccccc2c1Sc1ccccc1)c1ccccc1` (stereo not given), the IC95 is 400 nM.

On to `[O-][S+](Cc1[nH]c2ccc(Cl)cc2c1Sc1ccccc1)c1ccccc1` (stereo not given), for which the IC95 came to 800 nM.

`CNC(=O)c1[nH]c2ccccc2c1Sc1ccccc1`: the IC95 was 800 nM.

In the case of `COC(=O)c1[nH]c2ccccc2c1Sc1ccccc1`, the IC95 is above 3000 nM.

Take `NC(=O)c1[nH]c2ccc(Cl)cc2c1Sc1ccccc1`: the IC95 worked out at 200 nM.

`CC(C)=CCN1Cc2cc(Cl)cc3[nH]c(=S)n(c23)C[C@@H]1C`: the IC95 was determined as 400 nM.

With `CCNc1cccnc1N1CCN(C(=O)c2cc3cc(OC)ccc3[nH]2)CC1` [ATEVIRDINE MESYLATE], the IC95 came out at 3000 nM.

Regarding `CCc1cc(NCc2nc3c(Cl)ccc(Cl)c3o2)c(O)nc1C` [L-697661], the IC95 turned out to be 50 nM.

As for `NC(=O)c1[nH]c2ccc(Cl)cc2c1S(=O)(=O)c1ccccc1` [L-737126], the IC95 came out at 3 nM.

Turning to `Cc1ccnc2c1NC(=O)c1cccnc1N2C1CC1` [NEVIRAPINE], the IC95 is 400 nM.
